The NIST ThermoML archive (doi:10.1016/j.jct.2011.08.016)

Experiment: xn = mol fraction of the nth substance listed
Conditions: Liquid, Vibrating tube method

CCCCCCCCCC [decane] + CCCCCCCC
Conditions | mass density [kg/m3]
323.15 K, 13000 kPa, x2 = 0.7736 | 698.56
323.15 K, 13000 kPa, x2 = 0.9623 | 692.26
323.15 K, 14000 kPa, x2 = 0.5314 | 706.56
323.15 K, 14000 kPa, x2 = 0.7736 | 699.43
323.15 K, 14000 kPa, x2 = 0.9623 | 693.16
323.15 K, 15000 kPa, x2 = 0.5314 | 707.39
323.15 K, 15000 kPa, x2 = 0.7736 | 700.3
323.15 K, 15000 kPa, x2 = 0.9623 | 694.06
323.15 K, 16000 kPa, x2 = 0.5314 | 708.22
323.15 K, 16000 kPa, x2 = 0.7736 | 701.16
323.15 K, 16000 kPa, x2 = 0.9623 | 694.94
323.15 K, 17000 kPa, x2 = 0.5314 | 709.02
323.15 K, 17000 kPa, x2 = 0.7736 | 702
323.15 K, 17000 kPa, x2 = 0.9623 | 695.8
323.15 K, 18000 kPa, x2 = 0.5314 | 709.85
323.15 K, 18000 kPa, x2 = 0.7736 | 702.81
323.15 K, 18000 kPa, x2 = 0.9623 | 696.65
323.15 K, 19000 kPa, x2 = 0.5314 | 710.62
323.15 K, 19000 kPa, x2 = 0.7736 | 703.6
323.15 K, 19000 kPa, x2 = 0.9623 | 697.48
323.15 K, 20000 kPa, x2 = 0.5314 | 711.38
323.15 K, 20000 kPa, x2 = 0.7736 | 704.4
323.15 K, 20000 kPa, x2 = 0.9623 | 698.3
323.15 K, 21000 kPa, x2 = 0.5314 | 712.12
323.15 K, 21000 kPa, x2 = 0.7736 | 705.18
323.15 K, 21000 kPa, x2 = 0.9623 | 699.1
323.15 K, 22000 kPa, x2 = 0.5314 | 712.85
323.15 K, 22000 kPa, x2 = 0.7736 | 705.95
323.15 K, 22000 kPa, x2 = 0.9623 | 699.83
323.15 K, 23000 kPa, x2 = 0.5314 | 713.54
323.15 K, 23000 kPa, x2 = 0.7736 | 706.68
323.15 K, 23000 kPa, x2 = 0.9623 | 700.57
323.15 K, 24000 kPa, x2 = 0.5314 | 714.24
323.15 K, 24000 kPa, x2 = 0.7736 | 707.39
323.15 K, 24000 kPa, x2 = 0.9623 | 701.31
323.15 K, 25000 kPa, x2 = 0.5314 | 714.88
323.15 K, 25000 kPa, x2 = 0.7736 | 708.08
323.15 K, 25000 kPa, x2 = 0.9623 | 702
323.19 K, 1000 kPa, x2 = 0.0616 | 706.61
323.19 K, 2000 kPa, x2 = 0.0616 | 707.46
323.19 K, 3000 kPa, x2 = 0.0616 | 708.43
323.19 K, 4000 kPa, x2 = 0.0616 | 709.27
323.19 K, 5000 kPa, x2 = 0.0616 | 710.19
323.19 K, 6000 kPa, x2 = 0.0616 | 711.06
323.19 K, 7000 kPa, x2 = 0.0616 | 711.94
323.19 K, 8000 kPa, x2 = 0.0616 | 712.81
323.19 K, 9000 kPa, x2 = 0.0616 | 713.68
323.19 K, 10000 kPa, x2 = 0.0616 | 714.53
323.19 K, 10990 kPa, x2 = 0.0616 | 715.36
323.19 K, 12000 kPa, x2 = 0.0616 | 716.18
323.19 K, 13000 kPa, x2 = 0.0616 | 716.99
323.19 K, 14000 kPa, x2 = 0.0616 | 717.79
323.19 K, 15000 kPa, x2 = 0.0616 | 718.57
323.19 K, 16000 kPa, x2 = 0.0616 | 719.34
323.19 K, 17000 kPa, x2 = 0.0616 | 720.12
323.19 K, 18000 kPa, x2 = 0.0616 | 720.9
323.19 K, 19000 kPa, x2 = 0.0616 | 721.64
323.19 K, 20000 kPa, x2 = 0.0616 | 722.37
323.19 K, 21000 kPa, x2 = 0.0616 | 723.09
323.19 K, 22000 kPa, x2 = 0.0616 | 723.78
323.19 K, 23000 kPa, x2 = 0.0616 | 724.44
323.19 K, 24000 kPa, x2 = 0.0616 | 725.08
323.19 K, 25000 kPa, x2 = 0.0616 | 725.73
333.12 K, 1000 kPa, x2 = 0.0616 | 698.91
333.12 K, 1000 kPa, x2 = 0.2801 | 693.73
333.12 K, 2000 kPa, x2 = 0.0616 | 699.91
333.12 K, 2000 kPa, x2 = 0.2801 | 694.68
333.12 K, 3000 kPa, x2 = 0.0616 | 700.87
333.12 K, 3000 kPa, x2 = 0.2801 | 695.65
333.12 K, 4000 kPa, x2 = 0.0616 | 701.83
333.12 K, 4000 kPa, x2 = 0.2801 | 696.63
333.12 K, 5000 kPa, x2 = 0.0616 | 702.77
333.12 K, 5000 kPa, x2 = 0.2801 | 697.61
333.12 K, 6000 kPa, x2 = 0.0616 | 703.69
333.12 K, 6000 kPa, x2 = 0.2801 | 698.55
333.12 K, 7000 kPa, x2 = 0.0616 | 704.67
333.12 K, 7000 kPa, x2 = 0.2801 | 699.5
333.12 K, 8000 kPa, x2 = 0.0616 | 705.56
333.12 K, 8000 kPa, x2 = 0.2801 | 700.43
333.12 K, 9000 kPa, x2 = 0.0616 | 706.45
333.12 K, 9000 kPa, x2 = 0.2801 | 701.36
333.12 K, 10000 kPa, x2 = 0.0616 | 707.38
333.12 K, 10000 kPa, x2 = 0.2801 | 702.27
333.12 K, 10990 kPa, x2 = 0.0616 | 708.26
333.12 K, 10990 kPa, x2 = 0.2801 | 703.19
333.12 K, 12000 kPa, x2 = 0.0616 | 709.09
333.12 K, 12000 kPa, x2 = 0.2801 | 704.1
333.12 K, 13000 kPa, x2 = 0.0616 | 709.96
333.12 K, 13000 kPa, x2 = 0.2801 | 704.98
333.12 K, 14000 kPa, x2 = 0.0616 | 710.8
333.12 K, 14000 kPa, x2 = 0.2801 | 705.81
333.12 K, 15000 kPa, x2 = 0.0616 | 711.63
333.12 K, 15000 kPa, x2 = 0.2801 | 706.72
333.12 K, 16000 kPa, x2 = 0.0616 | 712.43
